In series [1] the test system is Leishmania infantum. Kind of series: Leishmanicidal activity against promastigote form of Leishmania infantum PB75 after 48 hrs by modified colorimetric method. Type of series: functional. As to conditions: PB75, 48 h.
Series [2] relates to Trypanosoma cruzi. Kind of series: Antitrypanosomal activity against epimastigote form of Trypanosoma cruzi Y after 72 hrs by modified MTT colorimetric assay. Type of series: functional. For orientation: Tetrazolium assays rely on reduction of a dye to a coloured formazan, in cell work by metabolically active cells.
Series [3] in a line: Cytotoxicity against CHO cells assessed as cell viability after 48 hrs by MTT colorimetric assay. In kind it is cell-based, Cricetulus griseus. As to conditions: chinese hamster.
The test system of series [4] is CHO. Kind of series: Cytotoxicity against CHO cells assessed as cell viability at 1 to 100 ug/ml after 48 hrs by MTT colorimetric assay. Type of series: cell-based, Cricetulus griseus. As to conditions: chinese hamster.
The subject of series [5] is Trypanosoma cruzi. Kind of series: Antitrypanosomal activity against epimastigote form of Trypanosoma cruzi Y at 1 to 100 ug/ml after 72 hrs by modified MTT colorimetric assay. Type of series: functional, organism-based.

For orientation: GI50 means the concentration giving 50% growth inhibition.

In brackets after ≈: the same amount, converted by molar mass. Activity calls are given as the source filed them. The calls are words filed in the database; no cut-off is given here.

On to `C/C=C1/C(=O)[C@@]23CCN(C)CC[C@H]1C[C@@H]2N(C(C)=O)c1c3ccc(OC)c1O`, for which the GI50 in series [1] is above 100 µg/mL. As to `C/C=C1\C(=O)[C@@]23CCN(C)CC[C@H]1C[C@@H]2N(C(C)=O)c1c3ccc(OC)c1O`, the concentration for 50% growth inhibition (GI50) in series [1] is above 100 µg/mL. As to `COc1cc(O)c2c(c1)[C@]13CCN4CC[C@H](C[C@@H]1N2C(C)=O)C1=CCO[C@]143`, in series [1], the GI50 is above 100 µg/mL. Consider `CC[C@@]12CCCN3CC[C@]4(c5cccc(O)c5N(C(C)=O)[C@@H]4CC1)[C@H]32`, for which the GI50 was found to be 7.7 µg/mL (≈ 22.6 µM) in series [1] and 41.7 µg/mL (≈ 122 µM) in series [2]. Further, the GI50 at 48 h in series [3] stood at 16.7 µg/mL (≈ 49.1 µM). `CC(=O)N1c2c(O)cccc2[C@]23CCN4CC[C@H](C[C@H]12)C1=CCO[C@]143` [GEISSOSPERMIDINE] came in with a GI50 in series [1] above 100 µg/mL. With `CC1CS(=O)(=O)CCN1/N=C/c1ccc([N+](=O)[O-])o1` (stereo not drawn) [NIFURTIMOX], in series [3], the GI50 at 48 h came to 13.9 µg/mL (≈ 48.4 µM). For the compound `C[C@@H]1[C@H](O)[C@@H](C)/C=C/C=C/C=C/C=C/C=C/C=C/C=C/[C@H](O[C@@H]2O[C@H](C)[C@@H](O)[C@H](N)[C@@H]2O)C[C@@H]2O[C@](O)(C[C@@H](O)C[C@@H](O)[C@H](O)CC[C@@H](O)C[C@@H](O)CC(=O)O[C@H]1C)C[C@H](O)[C@H]2C(=O)O` [AMPHOTERICIN B], the GI50 at 48 h in series [3] was 10.3 µg/mL (≈ 11.1 µM). Turning to `CCc1ccc2c3[nH]c4ccccc4c3cc[n+]2c1.[Cl-]` [FLAVOPEREIRINE], the Activity entry in series [4] is listed as “Toxic”. Besides, in series [5], the result was Active.

As for `COc1ccc2c(c1O)N(C(C)=O)[C@H]1C[C@@H]3CCN(C)CC[C@@]21C(=O)[C@]31O[C@H]1C`, the 50% growth inhibitory concentration (GI50) in series [1] was above 100 µg/mL. `CCCC(=O)N1c2c(O)cccc2[C@]23CCN4CC[C@H](C[C@H]12)C1=CCO[C@]143` displayed a GI50 in series [1] of 52.2 µg/mL (≈ 142 µM).
